From patent US7273925B1, “Methods and products for regulating lectin complement pathway associated complement activation” (Brigham and Women's Hospital, Inc., priority 1998, dated 2007)

Legend:
MBL [1] = target: T1, MBL (Homo sapiens, UniProt P11226); test: iC3b (C3) deposition cell surface ELISA on hypoxic/reoxygenated HUVECs; format: cell-based; settings: for attenuation of iC3b deposition: HUVECs 24 hr hypoxia, 3 hr reoxygenation; for iC3b deposition compared with normoxic HUVECs (FIG. 4a): 30 mmol/L in 30% human serum; for inhibition of iC3b deposition on hypoxic/reoxygenated HUVECs (in words): sugar at 3-300 mmol/L in 30% HS
T1 construct: 3 hr of reoxygenation in the presence of 30% human serum (HS); from tissue; host or cells: human serum (30% HS on HUVECs; 2% human sera on mannan-coated plates)
Description: Enzyme-Linked Immunoabsorbent Assay (ELISA) Experiments. […] HUVECs were grown to confluence on 0.1% gelatinized 96-well plastic plates (Corning Costar, Cambridge, Mass.). The plates were then subjected to 0 (normoxia) or 24 hr of hypoxia. Hypoxic stress was maintained using a humidified sealed chamber (Coy Laboratory Products, Inc., Grass Lake, Mich.) at 37° C. gassed with 1% O2, 5% CO2, balance N2 (Collard C D, et al., “Reoxygenation of hypoxic human umbilical vein endothelial cells activates the classical complement pathway”, Circulation 1997;96:326-333). Following the specified period of normoxia or hypoxia, the cell media were aspirated and 100 μl of one of the following was added to each well: 1) 30% HS, 2) Hank's balanced salt solution, 3) 30% HS+3, 30, or 300 mmol/L GluNAc, 4) 30% HS+3, 30, or 300 mmol/L D-mannose, 5) 30% HS+3, 30, 300 mmol/L L-mannose, 6) 30% MBL-depleted HS+3F8 (0, 20, 50 μg/ml)or 7) 30% MBL-depleted HS +0.6 μg/ml MBL. Additionally, 100 μl of purified MBL (3-300 ng/ml) was added to select wells to form a standard curve for quantitative analysis of MBL deposition. The cells were then reoxygenated for 3 hr at 37° C. in 95% air and 5% CO2. The cells were washed and then fixed with 1% paraformaldehyde (Sigma Chemical Co., St. Louis, Mo.) for 30 min. The cells were then washed and incubated at 4° C. for 1.5 hr with 50 μl of peroxidase-conjugated polyclonal goat anti-human C3 antibody (1:1000 dilution) or monoclonal anti-human MBL antibody (1:1000 dilution). The MBL ELISA plates were then washed and incubated for 1 hr at 4° C. with 50 μl of peroxidase-conjugated polyclonal goat anti-mouse IgG secondary antibody (1:1000 dilution). After washing the cells, the plates were developed with […] of ABTS (2,2′-azino-bis(3-ethylbenzthiazoline-6-sulfonic acid)), and read (Molecular Devices, Sunnyvale, Calif.) at 405 nm. Background controls for the C3 ELISA consisted of cells to which only the anti-human C3 antibody was added (i.e., no […]) or cells incubated with 30% heat-inactivated HS. Background controls for the MBL ELISA consisted of cells to which only secondary antibody and an isotype control monoclonal antibody to porcine C5a were added. Background optical density was subtracted from all groups. All ELISA experiments were performed 3 times using 6 wells per experimental group. Endothelial C3 and MBL deposition on normoxic vs. hypoxic […] was analyzed by two-way analysis of variance (ANOVA).
HUVEC cell culture and quantitation of iC3b deposition by ELISA were performed as outlined in Example 2.
Results. HUVECs were subjected to 0 or 24 hr of hypoxia followed by 3 hr of reoxygenation in the presence of 30% HS or 30% HS treated with 3, 30, or 300 mmol/L GluNAc, D-mannose or L-mannose in order to inhibit MBL deposition, LCP activation and iC3b deposition.
HUBECs were hypoxic for 24 hours and then reoxygenated in 30% human sera. iC3b deposition was then normalized to normoxic cells.

HUVECs = test: Microphysiometry of HUVEC extracellular acidification rate (EAR); format: cell-based, human; settings: normoxic or hypoxic/reoxygenated HUVECs; MBL 300-1500 ng/ml, 40 min perfusion; histamine 1 μmol/L
Description: Microphysiometry. Changes in HUVEC extracellular acidification rate (EAR) were evaluated by use of a Cytosensor microphysiometer (Molecular Devices, Sunnyvale, Calif.). HUVECs were grown to 75% confluence on gelatin-coated (1%) transwell capsules and subjected to 24 hr of hypoxia followed by 3 hr of reoxygenation. Following 30 min of equilibration in modified RPMI containing 1 mmol/L phosphate buffer (Molecular Devices, Sunnyvale, Calif.), the EARs were determined (Gronert K, et al., “Characterization of human neutrophil and endothelial cell ligand-operated extacellular acidification rate by microphysiometry: Impact of reoxygenation”, J. Pharmacol.Exp.Ther. 1998;285:252-261). HUVECs were perfused with 300-1500 ng/ml of purified MBL (dialyzed in the modified RPMI) for 30 sec before the first rate measurement and perfusion was maintained for 40 min. As a positive control, the HUVECs were perfused with media alone for 15 min following MBL exposure and then stimulated with histamine (1 μmol/L, 15 min perfusion) to evoke extracellular acidification. Each concentration of MBL was analyzed in two independent chambers containing normoxic or hypoxic/reoxygenated HUVECs. The HUVEC response to each MBL concentration was evaluated in 3 separate experiments (n=3).

MBL [2] = target: T1, MBL; test: Functional screen: C3 deposition on mannan-coated plates in 2% human sera; format: biochemical
Description: Methods. The functional screen for inhibition of MBL function by anti-human MBL antibodies was adapted from the literature{Super, Levinsky, et al., The level of mannan-binding protein regulates the binding of complement-derived opsonins to mannanand zymosan at low serum concentrations, Clin. Exp. Immunol. 1990; 79:144-150}. Briefly, 100 μl of mcannan (0.5 mg/ml in sodium carbonate/bicarbonate buffer, pH 9.6) was added to RIA/EIA plates at 4C overnight. The plates were then washed 3 times in PBS/0.5% Tween pH 7.3, once in PBS and finally in veronal-buffered saline. Human serum is diluted to 4% in VBS containing 5 mM Ca^2+ and Mg^2+. Diluted sera and tissue culture supernatant or purified antibody (various concentrations) are then 1:1 to a mannan-coated well to yield a final volume or 100 μl at a concentration of 2% human sera. The plate is then incubated at 37C for 30 min. Positive and negative controls consist of human sera without and with 100 mM N-acetlglucosamine (GluNac). The plates are then washed four times in PBS/Tween. The plates are then incubated with an anti-human C3 polyclonal antibody coupled with HRP (1 hours at RT), washed and developed with ABTS and read at 405 nm.

MBL [3] = target: T1, MBL; test: MBL deposition cell surface ELISA on hypoxic/reoxygenated HUVECs; format: cell-based; settings: for attenuation of MBL deposition: HUVECs 24 hr hypoxia, 3 hr reoxygenation
Description: C3 and MBL specific cell surface ELISAs can be performed using peroxidase-conjugated polyclonal goat anti-human C3 antibody (Cappel, West Chester, Pa.) and monoclonal anti-human MBL antibody (Biodesign, Kennebunk, Me., clone #131-1), respectively. HUVECs are grown to confluence on 0.1% gelatinized 96-well plastic plates (Corning Costar, Cambridge, Mass.). The plates are then subjected to 0 (normoxia) or 24 hr of hypoxia. Hypoxic stress is maintained using a humidified sealed chamber (Coy Laboratory Products, Inc., Grass Lake, Mich.) at 37° C. gassed with 1% O2, 5% CO2, balance N2 (Collard C D, et al., “Reoxygenation of hypoxic human umbilical vein endothelial cells activates the classical complement pathway”, Circulation, 1997;96:326-333). Following the specified period of normoxia or hypoxia, the cell media are aspirated and 100 μl of one the following is added to each well: 1) 30% HS, 2) Hank's balanced salt solution, 3) 30% HS +3, 30, or 300 mmol/L GluNAc, 4) 30% HS+3, 30, or 300 mmol/L D-mannose, 5) 30% HS+3, 30, 300 mmol/L L-mannose, 6) 30% MBL-depleted HS 7) 30% MBL-depleted HS+0.6 μg/ml MBL or 8) 30% HS+3, 30, or 300 mmol/L putative MBL binding peptide. Additionally, 100 μl of purified MBL (3-300 ng/ml) is added to select wells to form a standard curve for quantitative analysis of MBL deposition. The cells are then reoxygenated for 3 hr at 37° C. in 95% air and 5% CO2. The cells are washed and then fixed with 1% paraformaldehyde (Sigma Chemical Co., St. Louis, Mo.) for 30 min. The cells are then washed and incubated at 4° C. for 1.5 hr with 50 μl of peroxidase-conjugated polyclonal goat anti-human C3 antibody (1:1000 dilution) or monoclonal anti-human MBL antibody (1:1000 dilution). The MBL ELISA plates are then washed and incubated for 1 hr at 4° C. with 50 μl of peroxidase-conjugated polyclonal goat anti-mouse IgG secondary antibody (1:1000 dilution). After washing the cells, the plates are developed with 50 μl of ABTS (2,2′-azino-bis(3-ethylbenzthiazoline-6-sulfonic acid)), and read (Molecular Devices, Sunnyvale, Calif.) at 405 nm. Background controls for the C3 ELISA consist of cells to which only the anti-human C3 antibody is added (i.e., no HS) or cells incubated with 30% heat-inactivated HS. Background controls for the MBL ELISA consist of cells to which only secondary antibody and an isotype control monoclonal antibody to porcine C5a are added. Background optical density is subtracted from all groups. ELISA experiments are generally performed 3 times using 6 wells per experimental group. Endothelial C3 and MBL deposition on normoxic vs. hypoxic HUVECs is analyzed by two-way analysis of variance (ANOVA).
Enzyme-Linked Immunoabsorbent Assay (ELISA) Experiments. […]

T1 sequence (P11226 21-248): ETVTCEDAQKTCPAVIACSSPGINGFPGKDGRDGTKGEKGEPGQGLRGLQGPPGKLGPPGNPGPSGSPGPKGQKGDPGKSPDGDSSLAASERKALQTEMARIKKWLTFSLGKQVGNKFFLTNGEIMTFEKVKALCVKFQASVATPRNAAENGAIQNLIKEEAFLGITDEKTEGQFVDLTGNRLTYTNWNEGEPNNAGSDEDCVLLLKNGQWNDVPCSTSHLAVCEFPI

O=C[C@@H](O)[C@@H](O)[C@H](O)[C@H](O)CO [D-mannose]
attenuation of iC3b deposition (MBL [1]; 3 mmol/L in 30% HS): 19±2%
attenuation of iC3b deposition (MBL [1]; 30 mmol/L in 30% HS): 52±3%
iC3b deposition compared with normoxic HUVECs (FIG. 4a) (MBL [1]): did not significantly differ from normoxic controls
attenuation of iC3b deposition (MBL [1]; 300 mmol/L in 30% HS): 96±2%
inhibition of iC3b deposition on hypoxic/reoxygenated HUVECs (in words) (MBL [1]): significantly attenuated

O=C[C@H](O)[C@H](O)[C@@H](O)[C@@H](O)CO [L-mannose]
iC3b deposition compared with normoxic HUVECs (FIG. 4a) (MBL [1]): significantly greater than normoxic HUVECs
iC3b deposition, OD405 (MBL [1]; hypoxic HUVECs reoxygenated in 30% HS treated with the sugar, normoxic 0.05±0.01): 0.14±0.01
inhibition of iC3b deposition on hypoxic/reoxygenated HUVECs (in words) (MBL [1]): did not inhibit iC3b deposition

NCCc1c[nH]cn1 [histamine]
change in extracellular acidification rate (EAR) (HUVECs): all cells remained responsive

CC(=O)N[C@H]1C(O)O[C@H](CO)[C@@H](O)[C@@H]1O (stereo partly drawn) [GluNAc, N-acetyl-D-glucosamine]
EC50 (MBL [2]): ~1 nM
iC3b deposition compared with normoxic HUVECs (FIG. 4a) (MBL [1]): did not significantly differ from normoxic controls
inhibition of iC3b deposition on hypoxic/reoxygenated HUVECs (in words) (MBL [1]): significantly attenuated
attenuation of MBL deposition (MBL [3]; 3 mmol/L in 30% HS): 40±4%
attenuation of MBL deposition (MBL [3]; 30 mmol/L in 30% HS): 71±5%
attenuation of MBL deposition (MBL [3]; 300 mmol/L in 30% HS): 96±3%
MBL deposition on hypoxic/reoxygenated HUVECs (in words) (MBL [3]; 3, 30, 300 mmol/L added to 30% HS, dose-dependent): significantly inhibited MBL deposition

MBL: mannan-(or mannose) binding lectin purified from human plasma
change in extracellular acidification rate (EAR) (HUVECs): did not evoke receptor-mediated changes in the EAR
